In brackets after ≈: the same amount, converted by molar mass. Where two headings read alike, the source gives them in different places.
What was measured:
[1] = test system: HT-29 human colon carcinoma; assay: [3H] thymidine uptake cell proliferation assay, HT29; assay type: cell-based; conditions: read-out: Cell Proliferation Effects (IC50 (nM))
[2] = molecular target: PKB, full-length recombinant bovine protein, alpha form (Bos taurus, UniProt Q01314); assay: PKB inhibition in vitro enzyme assay (radioactive phosphate incorporation, scintillation counting); assay type: biochemical; conditions: PKB in vitro enzyme assay, 15 min at room temperature
PKB = assay: Time course kinase assay in U87 cells, immunoprecipitated with PKB/PH specific antibody; assay type: cell-based, human; conditions: for PKB activity, % of control: 5 uM, background about 15% of control
Procedure: The compound was added to culture at mid-logarithmic growth which were harvested at specific time intervals. In preparation for this assay, each cell line was seeded at a density of 3 times 1,000,000 cells per plate onto 150 mm culture dishes and allowed to establish o/n at 37 deg C. A confluency of 50–60% was obtained to ensure maximal drug penetration into each cell. Once the cells were adherent to the culture plates, there were treated with PKB inhibitor KP-23172 for a final conc. of 5 uM. Each culture plate was lysed on ice at specific time intervals using 1% NP-40 lysis buffer containing various protease inhibitors; 10 ug/uL aprotinin, 10 ug/ul leupeptin, 1 ug/ul pepstatin, 1 M beta-glycerophosphate and 100 mM PMSF. The resulting lysates were centrifuged at 15K×g at 4 deg C. for 5 min and then assayed for its protein conc. using Bradford's Reagent and absorbance measurements at 595 nm. […] Each sample was then centrifuged at 14K×g for 2 min at 4 deg C. and the s/n aspirated off. Beads were thoroughly washed twice with lysis buffer, then with Assay Dilution Buffer. When any unbound proteins have been completely washed away from the beads, 30 uL of ADB was added along with 10 uL of PDB substrate. Tubes were immediately incubated in 30 deg. C. water baths after the kinase reaction was allowed to commence with the addition of 10 uL assay (gamma32P)ATP. […] All vials were counted for one minute in the scintillation counter. To determine the potency of KP-23172, U87 cells were plated onto 150 mm petri plates and treated with 5 uM KP-23172. After incubation at 37 deg C. under 5% CO2 for the specified time, cells were lysed and the supernatant extracted for kinase analysis. All samples were immunoprecipitated with PKB/PH specific antibody and kinase activity. measured using a short amino acid peptide as the substrate. […] Background was about 15% of control.

[3] = test system: LS-180 (human colon carcinoma); assay: [3H] thymidine uptake cell proliferation assay, LS180; assay type: cell-based; conditions: read-out: Cell Proliferation Effects (IC50 (nM))
[4] = In vivo xenograft model, tumour growth; conditions: 2.5 mg/kg daily i.p. in DMSO, day 15, athymic (Rag2M) female mice; control 100%
Procedure: Mice were inoculated subcutaenously in the rear flank with […] (LS180) and then injected daily with KP-23172 i.p. Tumour measurements were taken daily. A group of 8 athymic (Rag2M) female mice were used as a murine allograft model for the test compound, which was administered in DMSO. 8 control mice received no test compound. Mice were inoculated with tumour cells subcutaneously in the rear flank and then injected with test compound daily intraperitoneally. Tumors were measured and the size calculated, with the objective being a reduction in tumor growth compared to controls. […] Results are illustrated in FIG. 4.

DU-145 (human carcinoma) = assay: [3H] thymidine uptake cell proliferation assay, DU145; assay type: cell-based; conditions: read-out: Cell Proliferation Effects (IC50 (nM))
[5] = test system: B16-F10 (murine melanoma); assay: [3H] thymidine uptake cell proliferation assay, B16F10; assay type: cell-based; conditions: Mus musculus, read-out: Cell Proliferation Effects (IC50 (nM))
physchem = assay: physchem
Excerpt: Solubility of KP-23172 was studied in various percent solutions of hydroxypropyl-B-cyclodextrin in water.

[6] = test system: LL2 Lewis Lung human lung carcinoma; assay: [3H] thymidine uptake cell proliferation assay, LL2; assay type: cell-based; conditions: LL/2, read-out: Cell Proliferation Effects (IC50 (nM))
in vivo = conditions: mouse, ip, 2 mg/kg
Procedure: A pharmacokinetics (PK) study was performed on KP-23172 formulated in 20% propylene glycol and 20% hydroxypropyl-B-cyclodextrin, administered intraperitoneally (i.p.) at 2 mg/kg. Plasma samples obtained at various time points were sent to BRI Biopharmaceutical Research Inc., Burnaby, BC, Canada for analysis by Liquid Chromatography/Mass Spectroscopy (LC/MS). Electrospray LC/MS/MS data was acquired in the multiple-reaction-monitoring mode (MRM) in which m/z 225.00>114.20 was monitored for KP-23172 as its [M+H]^+ transition to an ion fragment of m/z 114.2. A mass ion transition of m/z 300.00>165.10 was being monitored for codeine as an internal standard. MRM chromatograms of mouse plasma standard curve samples spiked with 1 and 5000 ng/ml were performed as controls. Plasma calibration standard curves were established based on 1/y linear regression of plasma concentrations of KP-23172 against peak area ratio to the internal standard. The calculated KP-23172 plasma concentrations were based on the assay of 0.05 ml of plasma volume used in the assay and reported as ng/ml concentration. A summary of the KP-23172 plasma concentrations observed in 20 samples from 4 mice is presented in FIG. 2 as a semi-logarithmic plot of the plasma concentrations against blood collection times.

[7] = test system: PC3 (human prostate carcinoma); assay: [3H] thymidine uptake cell proliferation assay, PC3; assay type: cell-based; conditions: PC-3, read-out: Cell Proliferation Effects (IC50 (nM))
B16-F1 (murine melanoma) = assay: [3H] thymidine uptake cell proliferation assay, B16F1; assay type: cell-based; conditions: Mus musculus, read-out: Cell Proliferation Effects (IC50 (nM))
[8] = test system: A-549 (human lung carcinoma); assay: [3H] thymidine uptake cell proliferation assay, A549; assay type: cell-based

Sequence of PKB, full-length recombinant bovine protein, alpha form (Q01314 whole entry): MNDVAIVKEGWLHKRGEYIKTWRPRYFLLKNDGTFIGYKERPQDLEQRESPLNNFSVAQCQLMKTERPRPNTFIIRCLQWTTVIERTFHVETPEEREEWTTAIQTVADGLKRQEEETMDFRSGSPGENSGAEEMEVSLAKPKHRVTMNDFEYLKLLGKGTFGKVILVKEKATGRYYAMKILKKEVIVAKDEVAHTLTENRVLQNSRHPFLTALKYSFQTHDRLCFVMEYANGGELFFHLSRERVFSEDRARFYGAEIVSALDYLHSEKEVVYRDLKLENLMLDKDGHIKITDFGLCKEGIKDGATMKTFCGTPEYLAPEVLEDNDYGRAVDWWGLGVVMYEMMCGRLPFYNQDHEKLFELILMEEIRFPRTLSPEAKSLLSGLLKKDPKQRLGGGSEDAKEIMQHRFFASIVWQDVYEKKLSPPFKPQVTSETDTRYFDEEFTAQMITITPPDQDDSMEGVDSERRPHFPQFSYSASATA

**Q.** For O=C1c2ccccc2-c2nc3nnnn3nc21 [KP-23172], which IC50 [1] is on record?
**A.** 200 nM

**Q.** And the IC50 [2]?
**A.** 15000 nM

**Q.** What about the “PKB activity, % of control” value (PKB; after 15 min) of the same compound?
**A.** 80.4%

**Q.** What about the “PKB activity, % of control” value (PKB; after 30 min) of the same compound?
**A.** 23.8%

**Q.** What about the “PKB activity, % of control” value (PKB; after 60 min) of the same compound?
**A.** 38.5%

**Q.** And the “levels of the kinase in time course kinase assay” value (PKB; 5 iM, after 60 minutes)?
**A.** significantly decreased levels of the kinase

**Q.** And the IC50 [3]?
**A.** 80 nM

**Q.** And the tumor take rate [4]?
**A.** 62.5%

**Q.** And the IC50 (DU-145 (human carcinoma))?
**A.** 50 nM

**Q.** What about the IC50 [5] of the same compound?
**A.** 400 nM

**Q.** And the “1:1 binding constant for the cyclodextrin inclusion complex” value (physchem)?
**A.** 474

**Q.** And the solubility (physchem; aqueous with cosolvent or surfactant or cyclodextrin)?
**A.** 728 µg/mL (≈ 3250 µM)

**Q.** What about the solubility (physchem; water) of the same compound?
**A.** 77 µg/mL (≈ 343 µM)

**Q.** And the IC50 [6]?
**A.** 400 nM

**Q.** And the concentration at 15 min (in vivo)?
**A.** ~500 ng/mL

**Q.** And the concentration at 60 min (in vivo)?
**A.** ~100 ng/mL

**Q.** What about the half-life (in vivo) of the same compound?
**A.** about ½

**Q.** What about the IC50 [7] of the same compound?
**A.** 250 nM

**Q.** What about the IC50 (B16-F1 (murine melanoma)) of the same compound?
**A.** 60 nM

**Q.** What about the IC50 ([8]; A459 cells, read-out: Cell Proliferation in A459 IC50 in nm) of the same compound?
**A.** 80 nM

**Q.** And the IC50 ([8]; A549, read-out: Cell Proliferation Effects (IC50 (nM)))?
**A.** 80 nM

From patent US7196083B2, “Heteropolycyclic inhibitors of protein kinases” (priority 2000, dated 2007)
